Experimental data reported in patent US20240299420A1, “TETRACYCLINE DERIVATIVE-INDUCED MITOHORMESIS MEDIATES DISEASE TOLERANCE AGAINST VIRAL INFECTIONS” (priority 2021, published 2024).
Entries after “also recorded” stand apart in the source; their conditions may differ.

Experiments:
[1] = system: mouse bone marrow derived macrophages (BMDM); assay: IFNβ measurement in BMDM culture medium (ELISA); type: cell-based; settings: for secretion of IFNβ: 24 hours, 9-TB 1.88 μg/ml, ATc 3.75 and 7.5 μg/ml vs Dox 7.5-15 μg/ml
germ-free C57BL/6J mice = type: in vivo, mouse; settings: Dox 500 mpkd in drinking water, 16 days, vs control
Description: B. Volcano plots displaying-log(adj. p-value) and the log fold change (FC) in expression of genes in kidney and liver. Above the graph, the number of differentially expressed genes is indicated (genes with adjusted p value (adj.pval)<0.05). C. […] E. Immunoblots of phosphorylated elF2α (pelF2α) and total elF2α and quantification in liver of Dox-treated germ-free mice.
Body weight at the time of the sacrifice was not different between the control and Dox-treated animals (FIG. 7A), indicating the absence of obvious adverse effects. […] Dox elicited organ-specific transcriptional responses, with the expression of remarkably more genes and different being affected in the kidney compared to the liver (FIG. 7B-C). […] The MSR features the induction of mitochondrial chaperones and proteases, such as Hspa9 and Lonp1, as well as of enzymes mediating adaptation to nutrient deprivation, such as asparagine synthetase (ASNS), which were increased at both the transcript and protein levels (FIG. 1C-D). […] Dox-treated germ-free mice kidneys thus gathered the typical attributes of the ATF4-ISR, a hallmark of the mammalian response to mitochondrial stress.
Male 9 weeks-old C57BL/6J mice were treated for 16 days with 500 mg/kg/day doxycycline hyclate (Sigma) in drinking water. Mice were housed with ad libitum access to water and food and kept under a 12-hour dark/12-hour light cycle. […]

IFV H1N1 PR8 strain [2] = assay: IFV infection in BALB/cN mice, 175 PFU, preventive treatment; type: in vivo, mouse; settings: for survival (mice recovering): Dox 40 mpkd or 9-TB 1 mpkd daily i.p., all control mice dead by day 11
gut bacterial community = settings: Dox 40 mpkd; for gut bacterial community composition (perMANOVA, NMDS): after 3 and 6 days of treatment, 9-TB 1 mpkd, vs untreated mice
[3] = system: IFV-A H1N1 PR8 infected BALB/cN mice; assay: RNA-Seq and GSEA of lung, liver and kidney of IFV infected mice (175 PFU, day 7)
[4] = system: hsp-6::gfp reporter (UPR^mt); type: in vivo, Caenorhabditis elegans; settings: for UPR^mt activation (hsp-6::gfp reporter): 68 µM, 9-TB at 17 μM; for induction of MSR and in particular mitohormesis: summary of screen of 51 tetracycline derivatives
[5] = system: hsp-6::gfp reporter (UPR^mt); type: in vivo, Caenorhabditis elegans; settings: microfluidic device; relative to Dox and cco-1 RNAi
HEK293T cells [6] = assay: Mitonuclear protein imbalance (MTCO1/ATP5A immunoblot) in HEK293T cells; type: cell-based, human; settings: 24 hours, stronger than Dox
Description: The mitonuclear protein imbalance may be determined by a disbalanced ratio between a mitochondrial-encoded gene (e.g. MTCO1) versus a nuclear-encoded gene (e.g. ATP5A) of OXPHOS subunits as is illustrated by FIG. 3A.
A. Immunoblots of HEK293T cells for the OXPHOS subunits ATP5A (encoded in nuclear DNA) and MTCO1 (encoded in mitochondrial DNA) with TUBULIN serving as a control. Quantification of the relative MTCO1/ATP5A ratio is shown on the right. […] Statistical analysis was performed by ANOVA followed by Tukey post-hoc test (*p≤0.05, **p≤0.01, ***p≤0.001). Error bars represent standard error mean (SEM).
HEK293T (Human embryonic kidney 293T) cells were purchased from ATCC and have been routinely checked in the laboratory for mycoplasma contamination with the MycoProbe detection kit (R&D systems). […]
Tissues and cells were lysed using RIPA buffer (50 mM Tris-HCl pH 7.4, 150 mM NaCl, 1% NP-40, 0.5% Na-deoxycholate, 0.1% SDS, 2 mM EDTA, and 50 mM NaF) supplemented with protease and phosphatase inhibitor cocktails (Roche/Thermo Fisher Scientific). […] Protein concentration was determined by the Lowry method. […] Samples were analyzed by immunoblotting using standard procedures.

HEK293T cells [7] = assay: Oxygen consumption rate in HEK293T cells (Seahorse XF96); type: cell-based, human; settings: 24 h, compared with Dox
Description: B. Oxygen consumption rate of HEK293T cells exposed to different concentrations of Dox, 9-TB, or ATc (n=8). […] Error bars represent standard error mean (SEM).
HEK293T (Human embryonic kidney 293T) cells were purchased from ATCC and have been routinely checked in the laboratory for mycoplasma contamination with the MycoProbe detection kit (R&D systems). HEK293T were grown at 37° C. in a humidified atmosphere of 5% CO2/95% air in DMEM medium with 4.5 g/L glucose (Gibco) including 10% FBS (Gibco), 1× nonessential amino acids (Invitrogen) and 5 mM penicillin/streptomycin (Invitrogen). Cells were treated for 24 h with the indicated doses of compounds 24 hours after seeding. Oxygen consumption rate was measured with the Seahorse XF96 instrument (Seahorse Bioscience) according to the manufacturer's protocol.

HEK293T cells [8] = assay: MSR gene transcripts by RT-qPCR in HEK293T cells; type: cell-based, human; settings: 24 h, compared with Dox
Description: Transcript levels of the indicated MSR genes measured by RT-qPCR (n=4).
HEK293T (Human embryonic kidney 293T) cells were purchased from ATCC and have been routinely checked in the laboratory for mycoplasma contamination with the MycoProbe detection kit (R&D systems). HEK293T were grown at 37° C. in a humidified atmosphere of 5% CO2/95% air in DMEM medium with 4.5 g/L glucose (Gibco) including 10% FBS (Gibco), 1× nonessential amino acids (Invitrogen) and 5 mM penicillin/streptomycin (Invitrogen). Cells were treated for 24 h with the indicated doses of compounds 24 hours after seeding.
RNA from cells and tissues was extracted using TRIzol and then reverse-transcribed into cDNA by the QuantiTect Reverse Transcription Kit (Qiagen) following the manufacturer's instructions. The qPCR reactions were performed using the LightCycler 480 II system and SYBR Green qPCR Master mix (Roche). All results are presented relative to the mean of housekeeping genes (ΔΔCt method). All mRNA expression levels were corrected for expression of the housekeeping gene 36B4 or Actb for samples of mouse origin, ACTB for samples of human origin.

[9] = system: mouse bone marrow derived macrophages (BMDM); assay: ISG and MSR gene transcripts by RT-qPCR in BMDM; type: cell-based; settings: 24 hours, 9-TB 1.88 μg/ml, ATc 3.75 and 7.5 μg/ml vs Dox 7.5-15 μg/ml
E. coli = assay: Minimum inhibitory concentration (MIC) of bacterial growth; type: cell-based; settings: compared with Dox
P. aeruginosa = assay: as above; type: cell-based; settings: compared with Dox
IFV H1N1 PR8 strain [10] = assay: IFV infection in BALB/cN mice, 1000 PFU, preventive treatment; type: in vivo, mouse; settings: Dox 50 mpkd
IFV H1N1 PR8 strain [11] = assay: IFV infection in BALB/cN mice, 760 PFU, therapeutic treatment; type: in vivo, mouse; settings: 9-TB 0.025 and 0.05 mpkd from day 1 post-inoculation, trend, not significant
Description: A. Comparison of bacterial community composition by nonmetric multidimensional scaling (NMDS) based on the Bray-Curtis dissimilarity. B. Comparison of bacterial species diversity in terms of Shannon diversity index (SDI) and richness. Statistical significance assessed by Kruskal-Wallis test and post-hoc Wilcoxon test with p-value adjusted for multiple comparison using the Holm-Bonferroni method. ‘****’: p<0.0001, ‘***’: p<0.001, ‘**’: p<0.01, ‘*’: p<0.05, ‘ns’: p>0.05. C-D. 8-weeks old BALB/cN mice (n=12) were infected intranasally with 760 PFU of IFV-A H1N1 PR8 and injected with 9-TB (0.05, 0.025 mpkd). Survival (C) and clinical score (D) were followed for 14 days post-infection (n=12). Statistical analysis was performed by ANOVA followed by Tukey post-hoc test (*p≤0.05, **p≤0.01, ***p≤0.001). For survival curves, statistical analysis was performed by Log-rank (Mantel-Cox) test (*p≤0.05, **p≤0.01, ***p≤0.001). Error bars represent standard error mean (SEM).
A. Descriptive scheme of the mouse IFV infection experiment depicted in FIG. 5C-D, S5B. B. 8-weeks old BALB/cN mice (n=12) were infected intranasally with 760 PFU of IFV-A H1N1 PR8 and injected with 9-TB (0.05, 0.025 mpkd). Body weight was followed for 14 days post-inoculation (n=12). C. […]

| Compound | survival (mice recovering) (IFV H1N1 PR8 strain [2]) [%] | gut bacterial community composition (perMANOVA, NMDS) (gut bacterial community) | UPR^mt activation (hsp-6::gfp reporter) [4] | induction of MSR and in particular mitohormesis [4] | UPR^mt induction, dose-response (GFP signal) [5] | impact on the mitonuclear protein imbalance (HEK293T cells [6]) [fold] | basal oxygen consumption rate (OCR) (HEK293T cells [7]) | induction of transcripts for the mammalian MSR signature genes (HEK293T cells [8]) | induction of the ISGs and MSR genes [9] | secretion of IFNβ [1] | MIC for E. coli (E. coli) | MIC for P. aeruginosa (P. aeruginosa) | other results |
| --- | --- | --- | --- | --- | --- | --- | --- | --- | --- | --- | --- | --- | --- |
| Nc1ccn([C@H]2CC[C@@H](CO)O2)c(=O)n1 [ddC, 2′,3′-dideoxycytidine, reference compound] |  |  |  |  |  |  |  |  |  |  |  |  | effect on Dox-induced secretion of IFNβ ([1]; ddC 100 μM for 72 hours, Dox 30 μg/ml for 14 hours): abrogated |
| C[C@H]1c2cccc(O)c2C(=O)C2=C(O)[C@]3(O)C(=O)C(C(N)=O)=C(O)[C@@H](N(C)C)[C@@H]3[C@@H](O)[C@@H]21 [Dox, doxycycline] | 50 | significant difference in composition |  |  |  |  |  |  |  |  |  |  | Body weight at the time of the sacrifice (germ-free C57BL/6J mice): not different; bacterial species diversity (Shannon diversity index and richness) (gut bacterial community): lower bacterial species diversity; gene sets involved in cytopathic processes and fibrosis in liver and kidney ([3]; Dox 40 mpkd): induced |
| Cc1c2c(c(O)c3c(O)cccc13)C(=O)[C@]1(O)C(=O)C(C(N)=O)=C(O)[C@@H](N(C)C)[C@@H]1C2 [ATc, anhydrotetracycline] |  |  | strongest activators | strongly induce MSR | more efficacious at lower doses | ~2 | reduced basal oxygen consumption rate (OCR) in a dose-dependent and more pronounced fashion than Dox | more prominent | superior to Dox | superior to Dox |  |  |  |
| C[C@H]1c2ccc(C(C)(C)C)c(O)c2C(O)=C2C(=O)[C@]3(O)C(O)=C(C(N)=O)C(=O)[C@@H](N(C)C)[C@@H]3[C@@H](O)[C@@H]21 [9-TB, 9-tert-butyl-doxycycline] | 50 | no differences were observed | strongest activators | strongest inducer of MSR | more efficacious at lower doses; also recorded: surpassing the robust UPR^mt caused by cco-1 RNAi feeding | ~2 | reduced basal oxygen consumption rate (OCR) in a dose-dependent and more pronounced fashion than Dox | more prominent | superior to Dox | superior to Dox | significantly higher MIC | significantly higher MIC | viral titer in the lung tissue (IFV H1N1 PR8 strain [2]; day 7 post infection, Dox 40 mpkd, 9-TB 1 mpkd): no significant difference in viral titer; mortality and decline in health (IFV H1N1 PR8 strain [10]; 9-TB 12.5 mpkd i.p.): delayed mortality; viral titer in the lungs (IFV H1N1 PR8 strain [10]; day 5 post-infection, 9-TB 12.5 mpkd): absence of an impact on the viral titer; survival (IFV H1N1 PR8 strain [11]): 20%; inflammatory and immune-related terms in the lungs (GSEA) ([3]; 9-TB 1 mpkd vs control IFV-infected): significantly down-regulated; immune-related and inflammatory gene sets in liver and kidney (GSEA) ([3]; 9-TB 1 mpkd, Dox 40 mpkd): down-regulated; lung cell type transcript profiles (GSEA) ([3]; 9-TB 1 mpkd, Dox 40 mpkd): reverted the loss of multiple cell types crucial to lung function |
| 7,9-bis(2,6-difluoro-4-pyridynyl)-sancycline [7,9-bis3POyr26 diF dox] |  |  |  | strongly induce MSR |  |  |  |  |  |  | significantly higher MIC | significantly higher MIC |  |
